15 molecules from EPA's ToxValDB 9.5 can be followed below.

≈ marks a conversion by molar mass, not a printed value. Where “and” joins values, the source holds several entries; their conditions need not be identical. Equal entries are not always repeated.

A word on the NOAEL: it is the highest tested level that showed no adverse finding. In general, LOAEL refers to the lowest tested level that showed an adverse finding. By LD50 is commonly meant the dose expected to kill half of the subjects tested. In general, LC50 refers to the concentration that kills 50% of the test population. A higher LC50 goes with a less lethal substance.

In data set [1] the test system is Rattus norvegicus. As to conditions: chronic, duration: 16 weeks, oral, diet, M, Wistar.
The test system of data set [2] is Rattus norvegicus. As to conditions: chronic, oral, diet, M/F.
Data set [3] has as its system Homo sapiens. As to conditions: clinical.
Data set [4] deals with Rattus norvegicus. As to conditions: for NOAEL: subchronic, duration: 13 weeks.
The test system of data set [5] is Mus musculus. Conditions: chronic, M/F; for LEL / NOEL: oral, diet.
Data set [6] has as its system Rattus norvegicus.
In data set [7] the test system is Oryctolagus sp. Conditions: New Zealand; for NOAEL: duration: 13 days, inhalation.
The test system of data set [8] is Rattus norvegicus. The source holds these as a separate data set.
For data set [9], the system named is Rattus norvegicus. Conditions: subchronic, M/F.
Data set [10] deals with Canidae. Conditions: chronic, oral, diet, M/F, Dog Other.
Data set [11] has as its system Rattus norvegicus. Conditions: Hershberger; duration: 10 days; oral; gavage; Sprague-Dawley; active + Negative + Antiandrogenic + anti-androgenic + Delayed PPS and decreased AST wt at 375 / bw decreased 6-7% / increased liver wt in….
In data set [12] the test system is Rattus norvegicus. As to conditions: repeat dose other; oral.
Data set [13] relates to Mus musculus. As to conditions: duration: 10 days, inhalation, CF1.
In data set [14] the test system is Mus musculus. As to conditions: developmental; duration: 9 days; inhalation; whole body; M/F; CF1; developmental.
Setting [15] is: inhalation, B6C3F1, suppurative inflammation of the nose.
Setting [16] is: duration: 2 years, reduced body weight gain.
Setting [17] is: duration: 6 months, liver and thyroid effects.
The mark [18] stands for this setting: duration: 1 years, increased serum cholesterol, alkaline phosphatase, and relative liver and kidney weight, and decreased alanine transaminase and adrenal ….
The mark [19] stands for this setting: duration: 20 months, increased absolute liver weight and nonneoplastic lesions.
Where [20] appears, read: duration: 2 years, centrilobular hepatocytomegaly (males).

In the case of `OCCO` [Ethylene glycol], the no observed adverse effect level (NOAEL) in [1] (Deaths + Body Weight Changes: Mean body weight decrease + Food Consumption: decrease + Water Consumption: increase + Urinalysis: SG decrease…) came out at 150 mg/kg-day; in data set [1] (Water Consumption: increase + Urinalysis: SG decrease, VOL increase + Absolute Organ Weight: Kidney increase + Relative Organ Weight: Kidney…), 150 mg/kg-day; in data set [3] (duration: 30 days, inhalation, M, respiratory), 23 mg/m3. Moreover, the LOAEL in data set [2] (kidney toxicity) worked out at 1000 mg/kg-day. For the same molecule, the NOEL in [2] (kidney toxicity) came to 200 mg/kg-day; in [4] (developmental, oral, diet, Fetus: Fetotoxicity), 200 mg/kg-day.
Consider `ClC1=C(Cl)C(Cl)(Cl)C(Cl)=C1Cl` [Hexachlorocyclopentadiene], for which the LOAEL in [5] (setting [15]) is 2.23 mg/m3; in data set [6] (chronic, duration: 2 years, inhalation, M/F, Fischer 344, respiratory), 0.112 mg/m3. Also, the NOAEL in data set [5] (setting [15]) was determined as 0.56 mg/m3; in data set [6] (chronic, duration: 14 weeks, inhalation, M/F, Sprague-Dawley, respiratory) it was 2.23 mg/m3; in [6] (subchronic, duration: 13 weeks, oral, gavage, M/F, Fischer 344, renal), 19 mg/kg-day; in data set [4] (inhalation, intermittent, Nasal cavity: Squamous metaplasia), 1.67 mg/m3; in data set [4] (oral, Forestomach: Lesions), 7.1 mg/kg-day.
With `N#CCCCCC#N` [Hexanedinitrile], the LD50 in data set [7] (acute, dermal, occlusive) was 2130 mg/kg; in data set [8] (acute, oral, gavage, Crl:CD(SD)), 138 mg/kg and 301 mg/kg. In data set [8] (acute, inhalation, Sprague-Dawley), this molecule showed an LC50 of 1.71 mg/L (≈ 15.8 µM). The NOAEL in data set [8] (developmental, duration: 14 days, oral, gavage, Sprague-Dawley) is over 80 mg/kg-day; in [9] (duration: 13 weeks, inhalation, whole body, Crl:CD(SD), Hematologic) it was 31 mg/m3.
Take `F` [Hydrogen fluoride]: the LOAEL in data set [3] (duration: 1 hours, inhalation, M, respiratory) was 0.409 mg/m3.
In data set [10] (setting [16]), `C=CCOC(Cn1ccnc1)c1ccc(Cl)cc1Cl` (stereo not given) [Imazalil] returned an LEL of 5 mg/kg-day and an NOEL of 1.25 mg/kg-day.
As to `CNc1cnn(-c2cccc(C(F)(F)F)c2)c(=O)c1Cl` [Norflurazon], in data set [10] (setting [17]), the LEL came out at 10.2 mg/kg-day and the NOEL was 3.75 mg/kg-day. Also, in data set [11], the LOEL is 375 mg/kg-day and 1000 mg/kg-day; the NOEL was 185 mg/kg-day and 300 mg/kg-day.
Turning to `CCCN(CCC)c1c([N+](=O)[O-])cc(S(N)(=O)=O)cc1[N+](=O)[O-]` [Oryzalin], in [10] (setting [18]), the LEL worked out at 50 mg/kg-day and the NOEL is 5 mg/kg-day.
For the molecule `CCOc1cc(Oc2ccc(C(F)(F)F)cc2Cl)ccc1[N+](=O)[O-]` [Oxyfluorfen], in data set [5] (setting [19]), the LEL is 3 mg/kg-day and the NOEL was found to be 0.3 mg/kg-day.
Regarding `O=[Se](=O)([O-])[O-]` [Selenate], in data set [12], the LOAEL was 0.33 mg/kg-day and the NOAEL was determined as 0.2 mg/kg-day.
In data set [3] (duration: 14 days, oral, M/F, endocrine), `[I-].[Na+]` [Sodium iodide] returned an NOAEL of 0.01 mg/kg-day.
The molecule `O=S=O` [Sulfur dioxide] showed an LOAEL in [3] (duration: 1 days, inhalation, M/F, respiratory) of 0.262 mg/m3.
`[Tl]` [Thallium] gave an LOAEL in data set [9] (duration: 90 days, oral, gavage, Sprague-Dawley) of 0.04 mg/kg-day.
In [5] (setting [20]), `COc1nc(C)nc(NC(=O)NS(=O)(=O)c2ccccc2OCCCl)n1` [Triasulfuron] yielded an LEL of 129 mg/kg-day and an NOEL of 1.2 mg/kg-day.
As for `[V]` [Vanadium], the NOAEL in data set [3] (duration: 12 weeks, oral, capsule, M/F, hematological) was 0.12 mg/kg-day. Also, the LOAEL in data set [6] (short-term, duration: 16 days, inhalation, F, Fischer 344, respiratory) was 0.56 mg/m3.
As to `C=CCl` [Vinyl chloride], the NOAEL is 1280 mg/m3 in data set [13] (developmental); 128 mg/m3 in data set [13] (reproduction developmental, F); 6390 mg/m3 in data set [7] (developmental); under 1280 mg/m3 in data set [7] (reproduction developmental, F); 6390 mg/m3 in data set [8] (developmental, duration: 10 days, inhalation, Sprague-Dawley); under 1280 mg/m3 in data set [8] (reproduction developmental, duration: 10 days, inhalation, F, Sprague-Dawley). The NOAEL in data set [12] is 0.17 mg/kg-day; in [2] (liver cell polymorphism), 0.13 mg/kg-day; in [14] it was 128 mg/m3; in [6] (chronic, duration: 149 weeks, oral, diet, M/F, Wistar, hepatic) it was 0.17 mg/kg-day. Also, the LOAEL in data set [12] was 1.7 mg/kg-day; in data set [2] (liver cell polymorphism), 1.3 mg/kg-day.
